{"source": "patent US20230233576A1", "about": "“ECLITASERTIB FOR USE IN TREATING CONDITIONS INVOLVING SYSTEMIC HYPERINFLAMMATORY RESPONSE” (priority 2020, published 2023)", "system": "adult participants hospitalized for severe COVID-19", "assay": "Phase 1b severe COVID-19 study: vital signs abnormalities (PCSA)", "type": "in vivo, human", "details": "600 mg, TEAE period", "protocol": "Physical examination including lung auscultation and assessment of consciousness, vital sign, electrocardiogram (ECG) parameters were measured per protocol.\nFor laboratory parameters (hematology, clinical chemistry, and urinalysis), vital signs, and ECG, incidences of potentially clinically significant abnormality (PCSA) values, actual values and change from baseline were summarized by treatment group.\nFor all laboratory, vital signs and ECG parameters, raw data and change from baseline were summarized in descriptive statistics by treatment group and scheduled time of measurement, with the exception of AST, ALT and alkaline phosphatase: instead of summarizing data in descriptive statistics, participants' profiles were presented through graphics by treatment group and with a color code to identify sites. The reason was that blood samples were processed by local laboratories with different normal ranges. For the rest of clinical laboratory these parameters it is reasonable to pool data as they are standard procedure and no significant differences in normal ranges were expected.", "data": [{"compound": "CN1C(=O)[C@@H](NC(=O)c2nnc(Cc3ccccc3)[nH]2)COc2cccnc21", "note": "[RIPK1 Inhibitor, (S)-5-benzyl-N-(5-methyl-4-oxo-2,3,4,5-tetrahydropyrido[3,2-b][1,4]oxazepin-3-yl)-4H-1,2,4-triazole-3-carboxamide]", "values": [{"measurement": "participants with systolic blood pressure≤95 mmHg and decrease from baseline≥20 mmHg", "value": 4, "unit": "participants"}, {"measurement": "PCSA Diastolic Blood Pressure ≤45 mmHg and decrease from baseline ≥10 mmHg", "setting": "Safety population", "value": "1/47"}, {"measurement": "PCSA Diastolic Blood Pressure ≥110 mmHg and increase from baseline ≥10 mmHg", "setting": "Safety population", "value": "0/47"}, {"measurement": "PCSA Heart Rate ≤50 beats/min and decrease from baseline ≥20 beats/min", "setting": "Safety population", "value": "0/47"}, {"measurement": "PCSA Heart Rate ≥120 beats/min and increase from baseline 20 beats/min", "setting": "Safety population", "value": "1/47"}, {"measurement": "PCSA Systolic Blood Pressure ≤95 mmHg and decrease from baseline ≥20 mmHg", "setting": "Safety population", "value": "4/47"}, {"measurement": "PCSA Systolic Blood Pressure ≥160 mmHg and increase from baseline ≥20 mmHg", "setting": "Safety population", "value": "4/47"}]}]}
